Experimental findings from EP1914304A1 (priority 1998, dated 1999) are described below.

Test [1] relates to E. coli KY895 harboring HSV-1 TK mutant TKF 105 (Leu-170 to Ile). The test can be described thus: Negative selection on AZT-selection medium. The test is classed as cell-based. The conditions noted are these: 0.05 µg/mL of AZT, 1.0 µg/mL of dT. From the text: (§1) This screen is based upon the premise that mutants with increased ability to phosphorylate AZT relative to dT would be unable to form colonies on the AZT-selection medium. In particular, the product, AZT monophosphate would be further phosphorylated by the host cell's nonspecific nucleotide kinases, or possibly by the mutant TK, incorporated into bacterial DNA by host DNA polymerases, terminate DNA synthesis, and thus prevent replication of the host chromosome.
(§2) Briefly, the TK mutants were first grown as individual colonies on TK-selection medium (1.0 µg/mL of dT), and then replica plated onto AZT-selection medium (0.05 µg/mL of AZT, 1.0 µg/mL of dT). All other components in the AZT-selection medium were the same as the TK-selection medium.

The subject of test [2] is E. coli KY895 harboring HSV-1 TK mutant TKI 208 (Leu-170 to Val). Nature of the test: Negative selection on AZT-selection medium. The test is classed as cell-based. The conditions noted are these: 0.05 µg/mL of AZT, 1.0 µg/mL of dT.
Source text: as §1, §2

For test [3], the system named is ts13 BHK tk- cells transfected with pCMV:132 (HSV-1 TK mutant 132). Nature of the test: Cell killing by GCV and ACV, Alamar Blue viability (ED50). Format: cell-based, baby hamster. As to conditions: Mesocricetus auratus, 96 h; effective dose for 50% cell killing, after 4 days on nucleoside analog, pooled G418 resistant clones. Here is the method: (§3) Briefly, the cell transfections are performed as follows. Approximately 5 x 10^5 ts13 BHK tk cells (ATCC CRL-1632) are plated on 100mm dishes in DMEM + 10% calf serum. For each transfection 1 µg of pSV2neo and 10µg of a pCMV construct (pCMV, pCMV:TK-wrong (HSVTK in the wrong orientation relative to the promoter), pCMV:HSVTK, pCMV:30, pCMV:75 or pCMV:132 DNA) in 0.25M CaCl2 are mixed with 0.5ml 2 x BBS (see Chen and Okayama) and preincubated at 37°C at 2.5% CO2 for […]. The CaCl2/DNA mix is added dropwise to the plates and mixed in well. After a 24 hour incubation at 37°C in a 2.5% CO2 wet incubator, the cells are rinsed twice with Dulbecco PBS minus Ca/Mg and fed with fresh DMEM + 10% calf serum. Plates are incubated at 37°C with 6% CO2. After 72 hours post-transfection the cells are split 1:3 and plated in DMEM + 10% calf serum containing G418 at 600µg/ml.
(§4) The cells are selected on G418 (600µg/ml) at 37°C for 17 days. […]. Approximately 30-40 clones are selected in this manner for each transfected DNA containing a tk gene in the correct orientation. The pCMV and pCMV:TK-wrong transfections yielded between 130 and 140 clones each. G418 resistant clones are harvested, pooled and plated at a density of 2000 cells/well in 100µl DMEM + 10% calf serum and 200µg/ml G418 + 6% CO2 in 96 well microtiter plates. […]. After three days in the presence of the nucleoside analog, Alamar Blue is added and 6 hours later the plates are scanned using a fluorometer as according to the manufacturer's protocol (Alamar Biosciences, Inc., Sacramento, CA). The plates are incubated a further 24 hours at 37°C and scanned again.
(§5) Determination of the fluorescence level of cells incubated in the presence of Alamar Blue directly relates to cell viability.

For test [4], the system named is ts13 BHK tk- cells transfected with pCMV:30 (HSV-1 TK mutant 30). Described as above. Format: cell-based, baby hamster. The conditions noted are these: Mesocricetus auratus, 96 h; effective dose for 50% cell killing, after 4 days on nucleoside analog, pooled G418 resistant clones. Here is the method: as §3, §4, §5
The subject of test [5] is ts13 BHK tk- cells transfected with pCMV:75 (HSV-1 TK mutant 75). The test is described as above. Format: cell-based, baby hamster. The conditions noted are these: Mesocricetus auratus, 96 h; effective dose for 50% cell killing, after 4 days on nucleoside analog, pooled G418 resistant clones. Here is the method:
as §3, §4, §5

The subject of test [6] is ts13 BHK tk- cells transfected with pCMV:HSVTK (wild-type HSV-1 TK). Described as above. The test is classed as cell-based, baby hamster. As to conditions: Mesocricetus auratus, 96 h; effective dose for 50% cell killing, after 4 days on nucleoside analog, pooled G418 resistant clones. Here is the method:
as §3, §4, §5

Test [7] has as its system BHK tk- cells transfected with pREP8D7:dualGFP expressing TK mutant 75. Nature of the test: ACV kill curves of transfectant pools. The test is classed as cell-based, baby hamster. The conditions noted are these: Mesocricetus auratus, Table VII. An excerpt:
The seven mutants were subcloned into the mammalian expression vector, pREP8D7:dualGFP. This vector contains a constitutive metallothionin promoter, which drives the expression of green flourescent protein (GFP), and an RSV LTR promoter, which stimulated expression of the TK mutants. The vector also contains a histidinol resistance gene for selection of transformants. Purified vector DNA of these constructs was used to transfect BHK tk- cells by electroporation. The transfectants were selected by resistance to histidinol and sorted using FACS analysis for GFP expression. Pools of transfectants were then assayed for sensitivity to GCV or ACV over a range of prodrug doses. […] Table VIII illustrates the IC50 values from Rat C6 kill curves with the SR11, SR26, and SR39 mutants.

The test system of test [8] is rat C6 glioblastoma cells transfected with TK mutant 30, subcutaneous tumor. Nature of the test: Mouse xenograft tumor model with prodrug treatment. The test is classed as in vivo, Nude mice. The conditions noted are these: prodrug twice a day for 5 days from day 5; Figures 32-34. Here is the method:
(§6) Rat C6 glioblastoma cells were transfected with the stable expression vector pREP8D7:dualGFP as described above containing various TK mutants. […] Experiments were carried out to establish prodrug dosing levels for tumor ablation and efficacy of therapy. Nude mice (JAX Labs, Bar Harbor, Maine) were injected subcutaneously with 0.5 x10^6 transfected rat C6 cells. After 5 days, prodrugs (ACV and GCV) were administered twice a day for a further 5 days. Prodrug was given at either of two concentrations (shown as mg/kg). During this period and for an additional 6 days, tumor size was monitored by caliper measurement every other day. At the end of the period, mice were sacrificed and the tumors excised and weighed.

The test system of test [9] is rat C6 glioblastoma cells transfected with TK mutant SR39, subcutaneous tumor. Nature of the test: Mouse xenograft tumor model with prodrug treatment. The test is classed as in vivo, Nude mice. As to conditions: prodrug twice a day for 5 days from day 5; Figures 32-34. Here is the method:
as §6

Test [10] concerns the target T1, HSV-1 thymidine kinase mutant 75 (LIF-ALL library, codons 159-161 and 168-170 randomized; pET23d:75) (Human herpesvirus 1, UniProt P0DTH5).
T1 sequence (P0DTH5 1-376): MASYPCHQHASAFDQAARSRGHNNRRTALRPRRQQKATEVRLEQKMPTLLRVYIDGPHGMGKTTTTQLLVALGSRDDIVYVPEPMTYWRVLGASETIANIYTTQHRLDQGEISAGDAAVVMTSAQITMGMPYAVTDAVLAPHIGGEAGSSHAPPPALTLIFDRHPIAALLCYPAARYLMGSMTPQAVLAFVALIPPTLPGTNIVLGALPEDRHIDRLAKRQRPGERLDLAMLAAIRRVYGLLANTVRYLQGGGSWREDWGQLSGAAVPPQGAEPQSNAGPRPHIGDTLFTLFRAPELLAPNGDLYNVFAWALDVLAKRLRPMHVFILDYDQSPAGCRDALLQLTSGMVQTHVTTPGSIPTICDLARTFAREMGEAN
As to conditions: Table V.
Method: The culture is incubated at 37°C overnight. The following day the 5ml culture is used to inoculate 1L M9ZB + cabenicillin at 20µg/ml and the culture allowed to grow at 37°C to OD600 0.1. At that point IPTG is added to 0.4mM and the culture incubated a further 3 hours. The cells are chilled on ice, pelleted by centrifugation and the pellets washed once in cell wash buffer (50mM Tris, pH 7.5, 5mM EDTA, 10% sucrose) prior to freezing the pellets at -70°C. The next day the cells are resuspended in 12ml Buffer 1 (50mM Tris, pH 7.5, 10% sucrose, 2mM DTT, 5mM EDTA, 1mM PMSF) and the volume split into two 13ml Oakridge ultracentrifuge tubes. 1ml Buffer 1 containing 3mg lysozyme is added to each tube and the tubes left on ice for 1 hr. […] The cleared supernatant is then aliquoted and frozen at -70°C.
The 1ml bed volume column is prepared by passing 10ml Buffer 1 followed by 10ml Absorption Buffer (50mM Tris, pH 7.5, 10% sucrose, 2mM DTT, 25mM MgAc2, 10mM ATP) over the column. Two ml of the cleared lysate is mixed with 2 ml of Absorption Buffer and passed through a 0.2µm filter. This mix is passed over the column 3 times. The column is washed with 5ml Absorption buffer three times and the 5ml fractions collected. […] The column is reactivated by loading on 10ml High Salt Buffer (50mM Tris, pH 7.5, 10% sucrose, 2mM DTT, 0.5M KCl) and 10ml 50mM Tris, pH 7.5. The column is stored in 50mM Tris pH 7.5 + 0.004% sodium azide. The extent of purification is monitored by Coomassie stained SDS:PAGE analysis and the concentration of purified protein determined using the BioRad Reagent (Bradford Reagent).
Km and Vmax values are determined from double reciprocal plots and kcat values are calculated using the equation Vmax = kcat [Eo] where [Eo] is the total enzyme concentration. The BioRad reagent was used to determine the total enzyme concentration of purified thymidine kinase enzymes.

For the compound `Cc1cn([C@H]2C[C@H](N=[N+]=[N-])[C@@H](CO)O2)c(=O)[nH]c1=O` [AZT, 3' azido-3' thymidine], the “colony formation on AZT-selection medium” value in test [1] and in [2] was “not on the AZT-selection medium” throughout.

In general, IC50 refers to the concentration at which inhibition is half-maximal. Broadly, the Km is the concentration of substrate that gives half-maximal velocity. On to `Nc1nc2c(ncn2COCCO)c(=O)[nH]1` [acyclovir], for which the IC50 in [3] amounted to 25 µM; in test [4], 18 µM; in test [5], 1.25 µM; in [6] it was 25 µM; in test [7] it was 0.06 µM. The “tumor reduction (tumor diameter, final tumor weight)” value in test [8] and in test [9] was “significant tumor reduction” each time. For the same compound, the Michaelis-Menten constant (Km) in [10] (double reciprocal plots) is 23 µM. Also, the kcat entry in [10] (per active site) was “.010 s⁻¹”.
